PubChem BioAssay AID1918958 (Molecular Pharmacology Branch, DTP, NCI, 2023)
pIC50: −log10 of the molar value.

Tested on: NCI-H196 complex spheroid viability
Assay: Anticancer human tumor NCI-H196 cell line growth inhibition [LSD1];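 also: spheroids exposed to agents for 7 days before readout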;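 as to viability, T/C: 100% = DMSO vehicle control viability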
Details: for pIC50: curve of first compound; for viability, T/C: stronger effect = lower value
Source text: Multicellular complex tumor spheroid response to LSD1 Inhibitor Iadademstat in combination with a variety of drugs and investigational agents in selected tumor cell lines
The current study was undertaken to assess response to LSD1 inhibitors in combination with standard-of-care drugs and investigational agents in solid tumor complex spheroid models as well as in the K-562 leukemia. Complex spheroids include a stromal component modeled by human endothelial cells (HUVEC) and fibroblasts modeled by human mesenchymal stem cells (MSCs). The concentration ranges selected for each drug and investigational agent were based upon clinically achievable concentrations if the clinical Cmax of the agent was known.
Compounds. The drugs and investigational agents used in this study are listed on Table 1. All of the agents used, including staurosporine (NSC755774) and gemcitabine (NSC613327), were obtained from the Developmental Therapeutics Program, NCI. FDA-approved anticancer drugs are available from the NCI at http://dtp.nci.nih.gov/branches/dscb/oncology_drugset_explanation.html. Drugs and investigational agents were >95% pure by proton nuclear magnetic resonance (NMR) and liquid chromatography/mass spectrometry (LC/MS). Stock solutions were prepared at 400x in DMSO, stored at -70 degrees C, and diluted in fresh medium prior to their use. The final concentration of DMSO in cell culture wells never exceeded 0.25% (v/v). The FDA-approved anticancer drug set is available from the Developmental Therapeutics Program at https://dtp.cancer.gov/organization/dscb/obtaining/available_plates.htm. All drugs and investigational agents were tested over a range starting from a high concentration at or near the clinical Cmax and decreasing in half-log increments. If the clinical Cmax for an agent had not been determined, the highest concentration tested was 10 microM.
Cell Lines. The patient-derived cancer cell (PDC) lines: 292921-168-R-J2-PDC, K24384-001-R-PDC, and 521955-158-R2-J5-PDC pancreatic carcinomas, 556581-035-R-J1 ovarian carcinoma, 324938-238-R-J1-PDC, 855422-203-R-J1-PDC and 883617-216-R-J1-PDC urothelial bladder carcinomas, 743489-274-T-PDC renal cell carcinoma, 138582-R-J1 Merkel cell tumor, K60290-347-R-J1 and K57222-313-R-J1-PDC glioblastomas, 653999-131-R-J2-PDC, LG0703-F948-PDC, and 349418-098-R-PDC non-small cell lung carcinomas, 885512-296-R-J2-PDC, 171881-019-R-J1-PDC breast carcinomas and 186277-243-T-J2-PDC and 233499-124-R-J2-PDC colon carcinomas were obtained from the NCI Patient-Derived Models Repository (PDMR, https://pdmr.cancer.gov). The established cell lines NCI/ADR-RES (RRID:CVCL_14520 and OVCAR-5 (RRID:CVCL_1628) ovarian carcinomas, 786-O (RRID:CVCL_1051) and A498 (RRID:CVCL_A498) renal cell carcinoma, NCI-H211 (ATCC, cat. CRL-5824; RRID:CVCL_1529), NCI-H196 (ATCC, cat. CRL-5823, RRID:CVCL_1509), SW 1271 (ATCC, cat. CRL-2177, RRID:CVCL_1716) and NCI-H1876 (ATCC, cat. CRL-5902, RRID:CVCL_1503) small cell lung carcinomas, MDA-MB-231 (RRID:CVCL_0062) and MDA-MB-468 (RRID:CVCL_0419)breast carcinomas (10-12). Pooled donor human umbilical vein endothelial cells (HUVEC, Lonza, cat. CC-2519) and human mesenchymal stem cells (hMSC, Lonza, cat. PT-2501) were purchased from Lonza (Walkersville, MD).
Cell Culture. All cells were maintained in an incubator at 37 degrees C and 5% CO2 with 95% humidity. The PDC lines were cultured according to standard operating procedures established by the NCI PDMR (https://pdmr.cancer.gov). Briefly all PDCs were thawed and cultured in Matrigel-coated flasks prepared with a working solution of 1X Ham's F-12 nutrient mix, without supplementation (Invitrogen, Waltham, MA, cat. 11765054), 100 U/mL penicillin-streptomycin (Invitrogen, cat. 15140122), and 2.5% Matrigel (Corning Inc., Corning, NY, cat. 354248) for the first three passages. […]

For `CC[C@@]1(O)C(=O)OCc2c1cc1n(c2=O)Cc2cc3c(CN(C)C)c(O)ccc3nc2-1` + NC1CC1c1ccc(-c2cccc(O)c2)cc1, the pIC50 (second compound 0.1 µM) was < 7.00, the pIC50 (second compound 0.316 µM) was < 7.00 and the pIC50 (second compound 1 µM) was < 7.00. For the same molecule, the pIC50 (second compound 3.16 µM) was < 7.00, the pIC50 (second compound 10 µM) was < 7.00 and the viability, T/C (second compound 0.1 µM, first compound 0.000316 µM) was 95.1%. It also gave a viability, T/C (second compound 0.1 µM, first compound 0.001 µM) of 101%, a viability, T/C (second compound 0.1 µM, first compound 0.00316 µM) of 115% and a viability, T/C (second compound 0.1 µM, first compound 0.01 µM) of 105%. For the same molecule, the viability, T/C (second compound 0.1 µM, first compound 0.0316 µM) was 95.7%, the viability, T/C (second compound 0.1 µM, first compound 0.1 µM) was 99.5% and the viability, T/C (second compound 0.316 µM, first compound 0.000316 µM) was 97.3%. For the same molecule, the viability, T/C (second compound 0.316 µM, first compound 0.001 µM) was 104%, the viability, T/C (second compound 0.316 µM, first compound 0.00316 µM) was 102% and the viability, T/C (second compound 0.316 µM, first compound 0.01 µM) was 109%. For the same molecule, the viability, T/C (second compound 0.316 µM, first compound 0.0316 µM) was 109%, the viability, T/C (second compound 0.316 µM, first compound 0.1 µM) was 95.9% and the viability, T/C (second compound 1 µM, first compound 0.000316 µM) was 92.4%. For the same molecule, the viability, T/C (second compound 1 µM, first compound 0.001 µM) was 93.8%, the viability, T/C (second compound 1 µM, first compound 0.00316 µM) was 104% and the viability, T/C (second compound 1 µM, first compound 0.01 µM) was 100%. The viability, T/C (second compound 1 µM, first compound 0.0316 µM) was 103%, the viability, T/C (second compound 1 µM, first compound 0.1 µM) was 94.8% and the viability, T/C (second compound 3.16 µM, first compound 0.000316 µM) was 90.7%. It also gave a viability, T/C (second compound 3.16 µM, first compound 0.001 µM) of 95.3%, a viability, T/C (second compound 3.16 µM, first compound 0.00316 µM) of 92.2% and a viability, T/C (second compound 3.16 µM, first compound 0.01 µM) of 101%. For the same molecule, the viability, T/C (second compound 3.16 µM, first compound 0.0316 µM) was 91%, the viability, T/C (second compound 3.16 µM, first compound 0.1 µM) was 82.6% and the viability, T/C (second compound 10 µM, first compound 0.000316 µM) was 88.8%. The viability, T/C (second compound 10 µM, first compound 0.001 µM) was 90.4%, the viability, T/C (second compound 10 µM, first compound 0.00316 µM) was 102% and the viability, T/C (second compound 10 µM, first compound 0.01 µM) was 115%. For the same molecule, the viability, T/C (second compound 10 µM, first compound 0.0316 µM) was 98.2% and the viability, T/C (second compound 10 µM, first compound 0.1 µM) was 78.2%.
